{"source": "paper PMC10590756", "about": "“Glutarate regulates T cell metabolism and anti-tumour immunity” (Nature Metabolism, 2023)", "key": {"[1]": {"tested_on": "protein glutarylation in human CD8^+ T cells", "assay": "Pan-lysine glutarylation western blot", "format": "cell-based", "description": "We determined this first by undertaking whole-protein lysate western blot analyses with a pan-lysine glutarylation (K-glutarylation) antibody[36],[38]. […] Glutarylation patterns were also altered when cells were exposed to different oxygen tensions (Fig. 3c and Extended Data Fig. 3a) and when treated with DEG (Fig. 3d and Extended Data Fig. 3b). […] Since, as shown in Extended Data Fig. 1g, DEG is converted within 15 min to glutarate intracellularly, it is likely that the DEG-induced glutarylation observed after 30 min of DEG treatment is a direct result of increases in intracellular glutarate.\nCell pellets were lysed by either urea-Tris buffer (8 M urea, 50 mM Tris-HCl (pH 7.5), 150 mM β-mercaptoethanol), sonicated twice for 45 s intercalated with 1 min incubation on ice and centrifuged at 14,000g, 4 °C for 15 min or by RIPA Lysis and Extraction Buffer (catalogue no. 89900, Thermo Fisher Scientific), according to the manufacturer’s instructions. Nuclear and cytosolic fractions were prepared from cells using the NE-PER kit (catalogue no. 78833, Thermo Fisher Scientific). Histones were extracted with the Histone Extraction Kit (catalogue no. ab113476, Abcam). Proteins were separated by SDS–PAGE and transferred to polyvinylidene fluoride (PVDF) membranes. Total protein stain was obtained using non-stain protein labelling reagent (catalogue no. A44448, Thermo Fisher Scientific). […]"}, "CD19^+ Raji cells": {"tested_on": "CD19^+ Raji cells", "assay": "In vitro cytotoxicity and IFNγ secretion of CD19 CAR T cells", "format": "cell-based, human", "conditions": "T cells cultured 7 days with 500 µM DEG", "description": "Secreted IFNγ levels of cultured cells were determined using an ELISA. Assays were performed with uncoated ELISA kits (catalogue no. 88-7316, Thermo Fisher Scientific), according to the manufacturer’s instructions. Absorbance was determined using a microplate reader (Sunrise, Tecan) at a wavelength of 450 nm.\nTen thousand B16F10-OVA or SKOV3 cells were seeded per well in 96-well plates and cocultured for a minimum of 14 h with varying ratios of mouse CD8^+ OT1 or human CD8^+RQR8^+ HER2 CAR T cells, respectively. T cells had been treated with or without DEG 7 days before the assay. Wells were washed twice with PBS to remove T cells and the number of remaining target cells was determined by culturing with 10 µg ml^−1 resazurin (catalogue no. R7017, Sigma-Aldrich) and measuring the fluorescence signal in a plate reader. Cytotoxicity was calculated relative to wells with no T cells added. Ten thousand Raji cells were cocultured for a minimum of 14 h with CD19 CAR T cells previously activated for 7 days and cultured with or without DEG. Cytotoxicity was assessed by flow cytometry using the ratio of live Raji cells to CountBright Absolute Counting Beads (catalogue no. C36950, Thermo Fisher Scientific). To determine specific cytotoxicity, data were normalized to the cytotoxicity of the vector-controlled transduced CD8 T cells of the respective donor."}, "[2]": {"tested_on": "H3 lysine methylation in human CD8^+ T cells", "assay": "Histone 3 methylation western blot", "format": "cell-based", "conditions": "DEG 500 µM, 7 days", "description": "Histones were extracted with the Histone Extraction Kit (catalogue no. ab113476, Abcam). Proteins were separated by SDS–PAGE and transferred to polyvinylidene fluoride (PVDF) membranes. Total protein stain was obtained using non-stain protein labelling reagent (catalogue no. A44448, Thermo Fisher Scientific). Membranes were then blocked in 5% milk prepared in PBS plus 0.05% Tween-20, incubated with primary antibodies overnight at 4 °C and horseradish peroxidase (HRP)-conjugated secondary antibodies (catalogue nos. HAF008 and HAF007, R&D Systems) for 1 h the next day. After enhanced chemiluminescence (ECL) exposure (catalogue no. GERPN2106, Sigma-Aldrich), membranes were imaged using an iBrightCL1000 (Thermo Fisher Scientific). […] 13998); and anti-H3k27ac (catalogue no."}, "human CD19^+ CAR T cells": {"tested_on": "human CD19^+ CAR T cells", "assay": "Growth of human CD19 CAR T cells", "format": "cell-based", "conditions": "500 µM, 7 days"}}, "data": [{"molecule": "CCOC(=O)CCCC(=O)OCC", "note": "[DEG, Diethyl glutarate]", "values": [{"measurement": "time of culture with DEG after which shifts in glutarylation could be detected", "setting": "[1]; 500 µM DEG", "result": 30, "unit": "min"}, {"measurement": "glutarylation patterns", "setting": "[1]; increasing concentrations of DEG, 7 days", "result": "altered"}, {"measurement": "cytotoxicity of CD19^+ CAR T cells against CD19^+ Raji cells", "setting": "CD19^+ Raji cells", "result": "increased cytotoxicity"}, {"measurement": "interferon-γ (IFNγ) secretion of CD19^+ CAR T cells", "setting": "CD19^+ Raji cells; coculture with Raji cells", "result": "secreted more"}, {"measurement": "dimethylation of H3K9", "setting": "[2]", "result": "increased"}, {"measurement": "trimethylation of H3K9", "setting": "[2]", "result": "increased"}, {"measurement": "trimethylation of H3K27", "setting": "[2]", "result": "increased"}, {"measurement": "growth of human CD19^+ CAR T cells", "setting": "human CD19^+ CAR T cells", "result": "did not affect the growth"}]}]}
